The test system of assay [1] is release of soluble CD23 (RPMI 8866 cell plasma membranes). As to the kind of experiment: RPMI 8866 cell membrane CD23 cleavage activity assay. It counts as biochemical, human. To be noted: RPMI 8866 plasma membranes, 37° C., sCD23 by EIA; read-out: IC50, inhibition of production of sCD23. As for the experimental part:
Procedure 1: The ability of test compounds to inhibit the release of soluble CD23 was investigated by use of the following procedure.
RPMI 8866 Cell Membrane CD23 Cleavage Activity Assay:
Plasma membranes from RPMI 8866 cells, a human Epstein-Barr virus transformed B-cell line (Sarfati et al., Immunology 60 [1987] 539-547) expressing high levels of CD23 are purified using an aqueous extraction method. Cells resuspended in homogenization buffer (20 mM HEPES pH 7.4, 150 mM NaCl, 1.5 mM MgCl2, 1 mM DTT) are broken by N2 cavitation in a Parr bomb and the plasma membrane fraction mixed with other membranes is recovered by centrifugation at 10,000×g. […]
The fractionated membranes are incubated at 37° C. for times up to 4 hrs to produce fragments of CD23 which are separated from the membrane by filtration in 0.2 micron Durapore filter plates (Millipore) after quenching the assay with 5 uM Preparation 1 from WO 95/31457 ([4-(N-Hydroxyamino)-2-(R)-isobutyl-3-(S)-(2-thiophenethiomethyl)succinyl]-(S)-phenylalanine—methylamide sodium salt, prepared according to the procedure descibed in Example 11 of WO 90/05719). sCD23 released from the membrane is determined using the EIA kit from The Binding Site (Birmingham, UK) or a similar one utilising MHM6 anti-CD23 mAb [Rowe et al., Int. […]

The next assay concerns the target T1, MMP-13 (Homo sapiens, UniProt P45452).
T1 construct: purchased Calbiochem
As to the kind of experiment: General MMP inhibition fluorescence quench assay, MMP-13. It counts as biochemical. To be noted: room temperature. On the procedure:
(§1) General MMP Inhibition Assays:
(§2) Inhibition of matrix metalloprotease activity was determined using a fluorescence quench assay with appropriate substrate. For example, MMP activity was determined using MMP activated using trypsin, according to Lark et al, Connective Tissue Res. 25, 52 (1990). The MMP is incubated at room temperature in a microtitre plate in a total volume of 100 ul, containing 0.15 M Tris Cl, 15 mM CaCl2, 0.2 M NaCl, pH 7.6 (assay buffer); inhibitor at concentrations up to 100 uM, with no more than 2% DMSO final concentration, 10 uM substrate (such as SDP-3815-PI for MMP-1, Peptides International). The MMP concentration is <10 nM, and determined empirically with the appropriate substrate to give at least a 20-fold increase in fluorescence emission in 30 min. Fluorescent excitation wavelength was 355 nm, emission wavelength 400-460 nm, and data points are collected to generate slope (change in fluorescence with time). Percent inhibition for each concentration is calculated from the slope at time zero, and IC50 values from the concentration dependence. MMP-1, 2, 3, 7, 9, 13, 14 may all be assayed in the same manner, using commercially available substrates reported to be effective for each enzyme. Enzymes were obtained from Calbiochem and activated using the same trypsin method.

The target in assay [2] is T2, human recombinant collagenase (Homo sapiens, UniProt P03956).
T2 construct: made in house; host or cells: E. coli
T2 sequence (P03956 100-469): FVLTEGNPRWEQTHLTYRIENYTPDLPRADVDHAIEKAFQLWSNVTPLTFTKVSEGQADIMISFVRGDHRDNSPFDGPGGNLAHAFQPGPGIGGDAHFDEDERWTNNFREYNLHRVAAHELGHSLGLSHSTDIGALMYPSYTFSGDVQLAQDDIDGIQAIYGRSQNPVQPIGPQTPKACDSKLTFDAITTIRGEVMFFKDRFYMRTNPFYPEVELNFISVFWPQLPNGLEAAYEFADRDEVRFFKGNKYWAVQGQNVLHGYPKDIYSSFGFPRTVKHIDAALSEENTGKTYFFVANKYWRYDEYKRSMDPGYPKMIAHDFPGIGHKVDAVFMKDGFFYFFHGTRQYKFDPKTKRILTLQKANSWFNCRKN
As to the kind of experiment: Collagenase inhibition assay. Conditions: 37° C., 18 h, acetylated 3H type 1 bovine collagen. In kind it is biochemical. On the procedure:
Procedure 2: The ability of test compounds to inhibit matrix metalloproteases was investigated using the following procedures.
Collagenase Inhibition Assay:
The potency of compounds to act as inhibitors of collagenase was determined by the method of Cawston and Barrett (Anal. Biochem. 99, 340-345, 1979), hereby incorporated by reference, whereby a 1 mM solution of the inhibitor being tested or dilutions thereof, was incubated at 37° C. for 18 h with collagen and human recombinant collagenase, from synovial fibroblasts cloned, expressed and purified from E. Coli, (buffered with 150 mM Tris, pH 7.6, containing 15 mM calcium chloride, 0.05% Brij 35, 200 mM sodium chloride and 0.02% sodium azide). The collagen was acetylated ^3H type 1 bovine collagen prepared by the method of Cawston and Murphy (methods in Enzymology 80, 711,1981) The samples were centrifuged to sediment undigested collagen and an aliquot of the radioactive supernatant removed for assay on a scintillation counter as a measure of hydrolysis. The collagenase activity in the presence of 1 mM inhibitor, or dilution thereof, was compared to activity in a control devoid of inhibitor and the results reported as that concentration effecting 50% of the collagenase (IC50).

For another assay, the target named is T3, MMP-3 (Homo sapiens, UniProt P08254).
T3 construct: purchased Calbiochem
T3 sequence (P08254 100-477, species assumed): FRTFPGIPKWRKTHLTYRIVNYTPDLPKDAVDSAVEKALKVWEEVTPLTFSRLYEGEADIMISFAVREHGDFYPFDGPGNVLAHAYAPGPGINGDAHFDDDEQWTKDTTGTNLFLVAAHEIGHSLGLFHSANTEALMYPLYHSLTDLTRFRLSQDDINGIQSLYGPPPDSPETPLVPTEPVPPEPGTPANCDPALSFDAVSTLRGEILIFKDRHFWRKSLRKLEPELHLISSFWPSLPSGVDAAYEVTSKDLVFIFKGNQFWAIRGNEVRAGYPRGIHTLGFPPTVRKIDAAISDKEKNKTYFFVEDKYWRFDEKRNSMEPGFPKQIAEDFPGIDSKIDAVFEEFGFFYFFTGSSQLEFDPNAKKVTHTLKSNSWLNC
As to the kind of experiment: General MMP inhibition fluorescence quench assay, MMP-3. In kind it is biochemical. Conditions: room temperature. On the procedure:
as §1, §2

A value given as a limit tells only on which side of the number the result lay.

Broadly, the IC50 is the concentration needed to halve the response being measured.

Consider `CCCO[C@@H](CS(=O)(=O)Cc1cnc2ccccc2c1)C(=O)NO` [Example 2, (R)—N-Hydroxy-2-propoxy-3-(quinolin-3-ylmethanesulfonyl)-propionamide], for which the IC50 came out at 0.11 µM in assay [1] and 7 µM against MMP-13.

For `O=C(NO)C(CS(=O)(=O)Cc1cnc2ccccc2c1)c1ccccc1` (centres unmarked) [Example 1, N-Hydroxy-2-phenyl-3-(3-quinolylmethanesulfonyl)-propionamide], the IC50 in assay [1] is 0.01 µM; in assay [2] it was more than 10 µM; at MMP-3 it was more than 10 µM.
